The target in one experiment is T1, TNF-α (Mus musculus, UniProt P06804).
T1 sequence (P06804 80-235 limits assumed): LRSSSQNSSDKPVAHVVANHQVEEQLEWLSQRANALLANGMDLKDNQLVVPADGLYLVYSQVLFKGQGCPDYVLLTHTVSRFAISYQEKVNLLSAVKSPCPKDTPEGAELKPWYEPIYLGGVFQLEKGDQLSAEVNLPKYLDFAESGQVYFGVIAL
As to the kind of experiment: Inhibition of TNF-α mediated trypanolysis (T. brucei) by antibodies and carbohydrates. Format: cell-based. As to conditions: inhibitor 10 μg/ml, TNF-α 1.000 U/ml. The method, then:
(§1) Purified parasites were resuspended at 4×10^6/ml PSG (PBS, consisting of 2.13 g NaCl, 8.45 g Na2HPO4 and 0.43 g NaH2PO4 per liter, supplemented with 1% glucose). […] of suspension were mixed with […] of different concentrations of CF, CCF-1 or TNF-α in 96-well culture plate. Quantification of the trypanolysis was based on the determination of parasite viability using Ethidium homodimer (EthD-1, Molecular Probes). EthD-1 is excluded by intact plasma membrane of live parasites. However, it enters the cells with damaged membrane and undergoes enhancement of fluorescence on binding nucleic acids, thereby producing a bright red fluorescence in dead cells. Briefly, after 4.5 hrs incubation at 30° C., […] of […] EthD-1 was added to the wells. The mean fluorescence intensity of triplicate cultures (±SD) was recorded 30 min later in a cytofluorimeter (Cytofluor II, PerSeptive Biosystems) using excitation/emission filters at 530±25/645±40 nm. A set of control was included in each experiments: (A) a parasite-free control to account for possible background fluorescence (B) a control of 100% lysis, prepared by treating the parasites with […] 2% saponin for about 10 min before adding EthD-1 (C) a control in which the trypanolytic component was replaced by PSG was considered as 0% lysis. (B) and (C) were used to build a standard curve and the % lysis in test samples was estimated by linear regression. In some assays parasite lysis was assessed by light microscopy counting the remaining parasites. Background lysis, i.e. lysis of trypanosomes within 5 hrs incubation at 30° C. in absence of lytic molecules, never exceeded 5–10%.
(§2) For inhibition experiments CCF-1 or TNF-α were pre-incubated 1 hr at 30° C. with 10 […] of antibodies (anti-CCF1, anti-TIP or irrelevant mAb) or sugars (chitobiose, cellobiose, Sigma). All experiments were repeated at least 3 times.

In experiment [1] the test system is trypanolytic activity (T. cruzi) of CF. As to the kind of experiment: Inhibition of the trypanolytic activity (T. cruzi) of CF by antibodies and carbohydrates. Format: cell-based. As for the experimental part:
as §1, §2

Experiment [2] relates to CCF-1. As to the kind of experiment: Inhibition of CCF-1 mediated trypanolysis (T. brucei) by antibodies and carbohydrates. The experiment is classed as cell-based, Eisenia foetida. The conditions noted are these: for CCF-1 mediated trypanolysis % Inhibition / CCF-1 mediated trypanolysis % Lysis: inhibitor 10 μg/ml, CCF-1 4 μg/ml. The method, then: as §1, §2
Experiment [3] deals with CCF-1. Kind of experiment: Inhibition of the cytolytic activity of CCF-1 (L929) by antibodies and carbohydrates. Format: cell-based, Eisenia foetida. The method, then: To test whether the cytolytic activity of CCF-1 is mediated by a similar or a different domain as that one utilized for the trypanolytic activity, CCF-1 was preincubated with N,N′-diacetylchitobiose or anti-TNF/TIP antibodies and tested in the L-929 lysis assay (21). […] This is in sharp contrast to the cytolytic activity of TNF-α that is not influenced by anti-TNF/TIP antibodies nor by N,N′-diacetylchitobiose.

Experiment [4] relates to Trypanosoma brucei AnTat 1.1E. As to the kind of experiment: Trypanolytic assay on T. brucei. The experiment is classed as cell-based. As for the experimental part:
Pleiomorphic and monomorphic Trypanosoma brucei AnTat 1.1E clone were provided by Dr N. Van Meirvenne (Institute of Tropical Medicine, Antwerp, Belgium).
as §1

In the next experiment the test system is anti-CCF-1 mAb 12C9. As to the kind of experiment: Dot spot assay of tryptic peptides with anti-CCF-1 mAb. The experiment is classed as binding. As for the experimental part: The separated peptides obtained from HPLC purification of the tryptic digest of CCF-1 were analyzed for reactivity with the anti-CCF-1 mAb via a dot spot assay. […] The obtained sequence is shown in SEQ ID NO:1.

The subject of the next experiment is T. cruzi. As to the kind of experiment: Trypanolytic activity on T. cruzi. The conditions noted are these: trypomastigote versus epimastigote forms. Format: cell-based. As for the experimental part: as §1, with “(B) and (C) were used to build a standard curve and the % lysis in test samples was estimated by linear regression.” left out, “Background lysis, i.e. lysis of trypanosomes within 5 hrs incubation at 30° C. in absence of lytic molecules, never exceeded 5–10%.” left out

Setting [5] is: inhibitor 10 μg/ml, CF final dilution 1:4.000.
Where [6] appears, read: Experiment 1, inhibitor 10 μg/ml, CCF-1 4 μg/ml, L929.

Here are results for four molecules from US7060790B1, “Peptides and nucleic acids derived from Eisenia foetida and the use thereof” (Vlaams Interuniversitair Instituut voor Biotechnologie VZW, priority 1997, dated 2006).

As a reminder, the inhibition is the change of the read-out against control, counted positive when it falls.

For `O=C[C@H](O)[C@@H](O)[C@H](O[C@@H]1O[C@H](CO)[C@@H](O)[C@H](O)[C@H]1O)[C@H](O)CO` [Cellobiose], on TNF-α, the “TNF-α mediated trypanolysis % Lysis” value was determined as 41% and the inhibition at 10 µg/mL was 0%. In experiment [1] (Trypanosoma cruzi, inhibitor 10 μg/ml, CF final dilution 1:4.000, read-out: CF-1 mediated trypanolysis % Inhibition), the inhibition at 10 µg/mL was 0%. The “CF-1 mediated trypanolysis % Lysis” value in experiment [1] (setting [5]) came to 67%. Also, in the experiment with CCF-1 [2], the “inhibition of the trypanolytic activity of CCF-1 (in words)” value is “does not influence the trypanolytic activity of CCF-1”, the “CCF-1 mediated trypanolysis % Inhibition” value is given as 0% and the “CCF-1 mediated trypanolysis % Lysis” value stood at 49%.

For the molecule `CC(=O)N[C@H]1[C@H](O[C@H]2[C@H](O)[C@@H](NC(C)=O)C(O)O[C@@H]2CO)O[C@H](CO)[C@@H](O)[C@@H]1O` (stereo partly shown) [N,N′-diacetylchitobiose], in the experiment with CCF-1 [3] (CCF-1 preincubated with inhibitor), the “inhibition of the interaction of CCF-1 with L-929 cells (in words)” value is “completely inhibited”. In the experiment on CCF-1 [3] (setting [6]), the “CCF-1 mediated cytolysis % Inhibition” value is 100% and the “CCF-1 mediated cytolysis % Lysis” value worked out at 0%. Further, on TNF-α, the “TNF-α mediated trypanolysis % Inhibition” value was 100% and the “TNF-α mediated trypanolysis % Lysis” value worked out at 0%. Besides, the “inhibition of the T. cruzi lytic activity of CF (in words)” value in experiment [1] was “substantially decreased”. In experiment [1] (setting [5]), the “CF-1 mediated trypanolysis % Inhibition” value is on record as 70% and the “CF-1 mediated trypanolysis % Lysis” value turned out to be 19%. In addition, in the experiment on CCF-1 [2], the “inhibition of the trypanolytic activity of CCF-1 (in words)” value is reported as “found to inhibit also the trypanolytic activity of CCF-1”, the “CCF-1 mediated trypanolysis % Inhibition” value is on record as 73% and the “CCF-1 mediated trypanolysis % Lysis” value worked out at 3%. For the same molecule, in the experiment on CCF-1 [2] (rCCF-1, FIG. 3A, 3B), the “inhibition of the trypanolytic activity of rCCF-1 (in words)” value was “inhibits potently”.

As to “NH2-SGEIDIIETIGNR-COOH (chain 1 H-SGEIDIIETIGNR-OH; chain 2 H-SGEIDIIETIGNR-OH; listed as Eisenia foetida) [CCF-1/TIP]”, the “trypanolytic activity on T. brucei (in words)” value in experiment [4] is “trypanolytic in a time- and dose-dependent way”. The “trypanolytic activity compared with the TNF/TIP peptide” value in experiment [4] (FIG. 1) is reported as “reproducibly more trypanolytic than the TNF/TIP peptide”. Also, the “reactivity with the anti-CCF-1 mAb 12C9 in dot spot assay” value in the experiment on anti-CCF-1 mAb 12C9 was “weakly positive”.

As for TNF-α, the “TNF-α mediated trypanolysis % Lysis” value in experiment [4] (TNF-α 1.000 U/ml, no inhibitor) is listed as 41%. Besides, the “binding to chitobiose / binding capacity towards N,N′-diacetylchitobiose” value in “Binding to chitobiose” is reported as “bind to immobilized chitobiose”. In addition, the “T. cruzi forms on which trypanolytic activity was recorded” value in the experiment on T. cruzi is recorded as “only be recorded on the trypomastigote but not the epimastigote forms”.
